According to US20220056043A1, “NITROGEN-CONTAINING FUSED CYCLIC COMPOUND, PREPARATION METHOD THEREFOR AND USE THEREOF” (SICHUAN KELUN-BIOTECH BIOPHARMACEUTICAL CO., LTD., priority 2019, published 2022):
Where a name gives a salt, the structure may show the parent alone.

Biological target: T1, hTLR8 (Homo sapiens, UniProt Q9NR97)
T1 construct: host or cells: HEK-Blue hTLR8 cells
T1 sequence (Q9NR97 27-1041): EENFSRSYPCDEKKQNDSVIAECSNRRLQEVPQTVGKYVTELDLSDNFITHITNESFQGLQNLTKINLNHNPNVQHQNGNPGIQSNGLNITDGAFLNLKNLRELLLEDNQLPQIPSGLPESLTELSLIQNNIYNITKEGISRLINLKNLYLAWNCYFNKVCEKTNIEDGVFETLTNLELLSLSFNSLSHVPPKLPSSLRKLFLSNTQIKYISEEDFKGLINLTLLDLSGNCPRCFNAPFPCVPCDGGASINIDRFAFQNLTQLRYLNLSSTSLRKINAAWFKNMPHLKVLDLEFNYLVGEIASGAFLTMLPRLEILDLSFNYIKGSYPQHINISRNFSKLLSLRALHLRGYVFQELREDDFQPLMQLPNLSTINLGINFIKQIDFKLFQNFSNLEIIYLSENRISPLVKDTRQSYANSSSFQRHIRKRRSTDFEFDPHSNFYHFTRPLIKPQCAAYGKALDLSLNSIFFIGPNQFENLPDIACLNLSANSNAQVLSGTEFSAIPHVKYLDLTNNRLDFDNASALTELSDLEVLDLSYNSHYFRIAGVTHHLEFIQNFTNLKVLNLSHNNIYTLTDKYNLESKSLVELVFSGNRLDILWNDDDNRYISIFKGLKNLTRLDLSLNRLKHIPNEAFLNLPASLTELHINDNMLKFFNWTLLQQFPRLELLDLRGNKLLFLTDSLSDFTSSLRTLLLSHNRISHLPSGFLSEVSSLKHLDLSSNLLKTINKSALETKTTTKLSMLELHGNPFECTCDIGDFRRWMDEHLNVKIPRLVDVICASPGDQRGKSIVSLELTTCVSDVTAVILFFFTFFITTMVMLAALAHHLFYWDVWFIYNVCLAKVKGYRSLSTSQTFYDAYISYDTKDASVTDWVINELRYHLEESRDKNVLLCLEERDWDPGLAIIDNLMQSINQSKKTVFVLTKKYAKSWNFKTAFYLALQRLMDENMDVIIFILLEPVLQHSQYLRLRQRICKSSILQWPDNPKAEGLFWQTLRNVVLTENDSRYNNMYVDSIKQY
Assay: Agonistic effect on hTLR8, HEK-Blue hTLR8 cells, alkaline phosphatase secretion
Type: cell-based
Settings: 16 hours
Description: Experimental Example 4: Agonistic Effect of the Compound of the Invention on hTLR8
In this test, the secretion of alkaline phosphatase in HEK-Blue cells was measured to test the activating effect of the compound of the invention on TLR8 signaling pathway, so as to evaluate the specificity of the agonistic effect of the compound on NLRP3 pathway.
Reagents: DMEM (High glucose); FBS (fetal bovine serum) (Gibco); QUANTI-Blue/InvivoGen/rep-qb2
Cells: HEK-Blue™ hTLR8 cells (human TLR 8 cells) (InvivoGen) Experimental Procedures:
1) The HEK-Blue™ hTLR8 cells in a logarithmic growth phase were trypsinized and resuspended in the medium to a concentration of 2×10^6 cells/mL. 50 μL/well of the cell suspension was added to a 96-well plate. An appropriate amount of 10 mM DMSO solution of the compound to be tested was taken and diluted to a concentration of 2× test concentration with the medium. 50 μL/well was added to the cells in the 96-well plate. The plate was incubated in an incubator at 37° C. and 5% CO2 for 16 hours. The medium was DMEM (High glucose) containing 10% FBS. 2) After the cell incubation, 10 μL of cell culture supernatant was transferred to a 96-well plate. 90 μL/well of QUANTI-Blue detection solution was added, and the mixture was incubated at 37° C. for 3 hours. OD620 was read using a microplate reader.
3) The EC50 of the effect of the tested compound to stimulate hTLR8 was fitted by the GraphPad software log(agonist) vs. response—Variable slope four-parameter method.

EC50 [µM] | Structure (SMILES)
> 100 | Nc1cc(N[C@H]2CC[C@H](O)C2)c2sc(-c3ccn[nH]3)cc2n1 [Compound 26, (1S,3S)-3-((5-amino-2-(1H-pyrazol-5-yl)thieno[3,2-b]pyridin-7-yl)amino)cyclopentanol]
> 100 | Nc1cc(N[C@@H]2CC[C@@H](O)C2)c2sc(-c3ccn[nH]3)cc2n1 [Compound 30s, (1R,3R)-3-((5-amino-2-(1H-pyrazol-5-yl)thieno[3,2-b]pyridin-7-yl)amino)cyclopentanol hydrochloride]
> 100 | Nc1cc(N[C@@H]2CC[C@H](O)C2)c2sc(-c3ccn[nH]3)cc2n1 [Compound 31, (1S,3R)-3-((5-amino-2-(1H-pyrazol-5-yl)thieno[3,2-b]pyridin-7-yl)amino)cyclopentanol]
> 100 | C[C@H](O)CNc1cc(N)nc2cc(-c3ccn[nH]3)sc12 [Compound 33]
> 100 | Nc1cc(NC2CC(O)C2)c2sc(-c3ccn[nH]3)cc2n1 (centres unmarked) [Compound 40, 3-((5-amino-2-(1H-pyrazol-5-yl)thieno[3,2-b]pyridin-7-yl)amino)cyclobutanol]
> 100 | CN1CC[C@H](Nc2cc(N)nc3cc(-c4ccn[nH]4)sc23)C1 [Compound 51, (S)—N^7-(1-methylpyrrolidin-3-yl)-2-(1H-pyrazol-5-yl)thieno[3,2-b]pyridine-5,7-diamine]
> 100 | CC(=O)NCCNc1cc(N)nc2cc(-c3ccn[nH]3)sc12 [Compound 52]
> 100 | CC(=O)NCCCNc1cc(N)nc2cc(-c3ccn[nH]3)sc12 [Compound 53]
> 100 | CN1CCN(CCCNc2cc(N)nc3cc(-c4ccn[nH]4)sc23)CC1 [Compound 54, N^7-(3-(4-methylpiperazin-1-yl)propyl)-2-(1H-pyrazol-5-yl)thieno[3,2-b]pyridine-5,7-diamine]
> 100 | Nc1cc(NCCN2CCOCC2)c2sc(-c3ccn[nH]3)cc2n1 [Compound 55, N^7-(2-morpholinoethyl)-2-(1H-pyrazol-5-yl)thieno[3,2-b]pyridine-5,7-diamine]
> 100 | CN1CCN(CCNc2cc(N)nc3cc(-c4ccn[nH]4)sc23)CC1 [Compound 57, N^7-(2-(4-methylpiperazin-1-yl)ethyl)-2-(1H-pyrazol-5-yl)thieno[3,2-b]pyridine-5,7-diamine]
> 100 | Nc1cc(NCCCNC(=O)C2CC2)c2sc(-c3ccn[nH]3)cc2n1 [Compound 58]
> 100 | Nc1cc(NCc2ccccn2)c2sc(-c3ccn[nH]3)cc2n1 [Compound 59, 2-(1H-pyrazol-5-yl)-N^7-(pyridin-2-ylmethyl)thieno[3,2-b]pyridine-5,7-diamine]
> 100 | Cn1ccc(CNc2cc(N)nc3cc(-c4ccn[nH]4)sc23)n1 [Compound 60, N^7-(1-methyl-1H-pyrazol-3-yl)methyl-2-(1H-pyrazol-5-yl)thieno[3,2-b]pyridine-5,7-diamine]
> 100 | Nc1cc(NC2CCOC2)c2sc(-c3ccn[nH]3)cc2n1 (centres unmarked) [Compound 61, 2-(1H-pyrazol-5-yl)-N^7-(tetrahydrofuran-3-yl)thieno[3,2-b]pyridine-5,7-diamine]
> 100 | CC1CN(CCNc2cc(N)nc3cc(-c4ccn[nH]4)sc23)CC(C)O1 (centres unmarked) [Compound 62]
> 100 | Cn1cnc(CNc2cc(N)nc3cc(-c4ccn[nH]4)sc23)c1 [Compound 63, N^7-(1-methyl-1H-imidazol-4-yl)methyl-2-(1H-pyrazol-5-yl)thieno[3,2-b]pyridine-5,7-diamine]
> 100 | Nc1cc(NCCNC(=O)C2CC2)c2sc(-c3ccn[nH]3)cc2n1 [Compound 64]

EC50 [µM] | Structure (SMILES)
> 100 | CC(=O)N(C)CCNc1cc(N)nc2cc(-c3ccn[nH]3)sc12 [Compound 73, N-(2-((5-amino-2-(1H-pyrazol-5-yl)thieno[3,2-b]pyridin-7-yl)amino)ethyl)-N-methylethanamide]
> 100 | CC(=O)N(C)CCCNc1cc(N)nc2cc(-c3ccn[nH]3)sc12 [Compound 74, N-(3-((5-amino-2-(1H-pyrazol-5-yl)thieno[3,2-b]pyridin-7-yl)amino)propyl)-N-methylacetamide]
> 100 | CN(CCNc1cc(N)nc2cc(-c3ccn[nH]3)sc12)C(=O)C1CC1 [Compound 75, N-(2-((5-amino-2-(1H-pyrazol-5-yl)thieno[3,2-b]pyridin-7-yl)amino)ethyl)-N-methylcyclopropionamide]
> 100 | CN(CCCNc1cc(N)nc2cc(-c3ccn[nH]3)sc12)C(=O)C1CC1 [Compound 76, N-(3-((5-amino-2-(1H-pyrazol-5-yl)thieno[3,2-b]pyridin-7-yl)amino)propyl)-N-methylcyclopropane formamide]
> 100 | CCC(=O)N(C)CCNc1cc(N)nc2cc(-c3ccn[nH]3)sc12 [Compound 88, N-(2-((5-amino-2-(1H-pyrazol-5-yl)thieno[3,2-b]pyridin-7-yl)amino)ethyl)-N-methylpropionamide]
> 100 | CN1CCC(Nc2cc(N)nc3cc(-c4ccn[nH]4)sc23)CC1 [Compound 89, N^7-(1-methylpiperidin-4-yl)-2-(1H-pyrazol-5-yl)thieno[3,2-b]pyridine-5,7-diamine]
> 100 | Nc1cc(NCCCO)c2sc(-c3ccncc3)cc2n1 [Compound 90, 3-((5-amino-2-(pyridin-4-yl)thieno[3,2-b]pyridin-7-yl)amino)-1-propanol]
> 100 | Cc1cccc(-c2cc3nc(N)cc(NCCCO)c3s2)n1 [Compound 91, 3-((5-amino-2-(6-methylpyridin-2-yl)thieno[3,2-b]pyridin-7-yl)amino)-1-propanol]
> 100 | CC(=O)N1CCC(Nc2cc(N)nc3cc(-c4ccn[nH]4)sc23)CC1 [Compound 92, 1-(4-((5-amino-2-(1H-pyrazol-5-yl)thieno[3,2-b]pyridin-7-yl)amino)piperidin-1-yl)ethanone]
> 100 | Nc1cc(NCCCO)c2sc(-c3ccccc3)cc2n1 [Compound 93, 3-((5-amino-2-phenylthieno[3,2-b]pyridin-7-yl)amino)-1-propanol]
> 100 | CC[C@H](CO)Nc1cc(N)nc2cc(-c3ccn[nH]3)sc12 [Compound 95, (R)-2-((5-amino-2-(1H-pyrazol-5-yl)thieno[3,2-b]pyridin-7-yl)amino)butanol]
> 100 | Nc1cc(N[C@@H]2CCC[C@@H]2O)c2sc(-c3ccn[nH]3)cc2n1 [Compound 96, (1S,2R)-2-((5-amino-2-(1H-pyrazol-5-yl)thieno[3,2-b]pyridin-7-yl)amino)cyclopentanol]
> 100 | Nc1cc(NCC(F)(F)c2ccccn2)c2sc(-c3ccn[nH]3)cc2n1 [Compound 97, N^7-(2,2-difluoro-2-(pyridin-2-yl)ethyl)-2-(1H-pyrazol-5-yl)thieno[3,2-b]pyridine-5,7-diamine]
> 100 | CC1(O)CCN(CCNc2cc(N)nc3cc(-c4ccn[nH]4)sc23)CC1 [Compound 98, 1-(2-((5-amino-2-(1H-pyrazol-5-yl)thieno[3,2-b]pyridin-7-yl)amino)ethyl)-4-methylpiperidine-4-ol]
> 100 | CC1(O)CCN(CCCNc2cc(N)nc3cc(-c4ccn[nH]4)sc23)CC1 [Compound 99, 1-(3-((5-amino-2-(1H-pyrazol-5-yl)thieno[3,2-b]pyridin-7-yl)amino)propyl)-4-methylpiperidine-4-ol]
> 100 | COCCNc1cc(N)nc2cc(-c3ccn[nH]3)sc12 [Compound 100, N^7-(2-methoxyethyl)-2-(1H-pyrazol-5-yl)thieno[3,2-b]pyridine-5,7-diamine]
> 100 | CO[C@H](C)CNc1cc(N)nc2cc(-c3ccn[nH]3)sc12 [Compound 101, (R)—N^7-(2-methoxypropyl)-2-(1H-pyrazol-5-yl)thieno[3,2-b]pyridine-5,7-diamine]
